Source: patent publication US20260285870A1, “TRIAZOLOPYRIDAZINE DERIVATIVE, PREPARATION METHOD THEREFOR, PHARMACEUTICAL COMPOSITION THEREOF, AND USE THEREOF” (SHANGHAI SIMR BIOTECHNOLOGY CO., LTD., priority 2019, published 2026)

System: not listed separately
Experiment: Pharmacokinetic experiment on rats: brain entry ratio (brain tissue/plasma concentration ratio)
Type: in vivo
Settings: male SD rats, po, 10 mg/kg, 0.5 hours
Experimental: The drug concentration ratio of plasma and brain tissue in the pharmacokinetic experiment on rats was used to evaluate the entry of compounds into brain. All rats fasted overnight before administration; the test compounds were dissolved and administered orally (po) to male SD rats, with 3 rats in each group. After administration of the test compounds, blood was collected by jugular vein puncture at 0.5 hours with about 0.25 mL per sample. The whole brain was taken at the same time. The plasma and brain tissue drug concentration were determined by LC-MS/MS method, and the pharmacokinetic parameters were calculated by Phoenix WinNonlin7.0. The dosage was 10 mg/kg, and the vehicle was 5% CMC-Na aqueous solution.
`COc1cc2nnc(-c3cc(C)on3)n2nc1OCc1ccc2c(n1)CCN(C(CO)CO)C2` [Embodiment 185] showed a Brain entry ratio of 0%.

System: not listed separately
Experiment: Water solubility observed during work-up
Type: physicochemical
Settings: observation at extraction, pH=7
Experimental: Methyl 6-[7-methoxy-3-(5-methyl-isoxazol-3-yl)-[1,2,4]triazolo[4,3-b]pyridazin-6-yloxymethyl]-nicotinate (300 mg, 0.75 mmol), 1 M lithium hydroxide (1.5 mL, 1.5 mmol) were sequentially added to 10 mL of ethanol, and the mixture was stirred at room temperature for 1 hour. The mixture was added with 0.5 M hydrochloric acid to neutralize to pH=7, diluted with water, extracted with ethyl acetate. […] LC-MS: m/z [M+H]^+=383.
With `COc1cc2nnc(-c3cc(C)on3)n2nc1OCc1ccc(C(=O)O)cn1` [Embodiment 63] the water solubility was “good water solubility”.

System: not listed separately
Experiment: Rat liver microsome stability (RLM) experiment
Type: in vitro ADME
Settings: pH 7.4; rat liver microsomes 0.5 mg protein/mL, NADPH, 37° C., 0-45 min
Experimental: Rat liver microsomes (Xenotech, item No. R1000, lot No. 1310030), 100 mM potassium phosphate buffer solution (pH 7.4), 10 mM magnesium chloride.
Compound preparation: 5 μL of compound DMSO mother liquor (10 mM) was added to 495 μL of methanol to obtain an intermediate solution with a compound concentration of 100 μM. Then 50 μL of the intermediate solution was taken and dissolved in 450 μL of potassium phosphate buffer solution to obtain a test solution with a final concentration of 10 μM.
NADPH regeneration system (concentration of isocitrate dehydrogenase 1 unit/mL).
Liver microsomes (final concentration 0.5 mg protein/mL).
Reaction termination solution: cold acetonitrile containing 100 ng/mL Tolbutamide and 100 ng/mL Labetalol as an internal standard.
• (1) Preparation of Buffer Solution: • Buffer solution A: 1.0 L of 0.1 M potassium phosphate buffer solution containing 1.0 mM EDTA • Buffer solution B: 1.0 L of 0.1 M dipotassium phosphate buffer solution containing 1.0 mM EDTA • Buffer solution C: 0.1 M potassium phosphate buffer, 1.0 mM EDTA, pH 7.4, titrated with 700 mL of buffer solution B and buffer solution A, monitored by pH meter. • (2) Preparation of Reference Substance (Ketanserin) and Concentration of Administration Solution of the Test Substance
5000 administration solution: […] 10 mM DMSO reference substance stock solution and test substance stock solution were added to 190 μL of ACN, respectively. 1.5 μM administration solution (containing 0.75 mg/mL liver microsomes): […] administration solution and 18.75 μL of 20 mg/mL liver microsomes were added to 479.75 μL of buffer C on a wet ice. • (3) NADPH was added to buffer solution C to obtain a NADPH stock solution (6 mM). • (4) 30 μL of 1.5 μM administration solution (containing 0.75 mg/mL of liver microsomes) was taken on the wet ice and added to the wells of the test plate at different time points (0-, 5-, 15-, 30-, 45-min), respectively. • (5) Firstly, 135 μL of ACN containing IS was added to the wells of a 0 min test plate, and then 15 µL of the NADPH stock solution (6 mM) was added. • (6) The test plate at other time points and the NADPH stock solution were pre-heated in a 37° C. water bath for 5 minutes. • (7) 15 μL of the NADPH stock solution (6 mM) was taken and added to a pre-incubated test plate, and the reaction was started and timed. • (8) At 5 min, 15 min, 30 min and 45 min, 135 µL of CAN containing IS was added to the corresponding test plate respectively, and the test was completed. • (9) Test plates were shaken with a shaker (IKA, MTS 2/4) for 10 min (600 rpm/min) and then centrifuged for 15 min (Thermo Multifuge×3R, 5594 g). • (10) 50 μL of supernatant from each well was added to a 96-well sample plate containing 50 μL of ultrapure water (Millipore, ZMQS50F01), and the samples were analyzed by LC/MS.
With `CCNC(=O)c1ccc(COc2nn3c(-c4cc(C)on4)nnc3cc2OC)nc1` [Embodiment 35] the microsomal CLint was 11.4 µL/min/mg.
`COc1cc2nnc(-c3cc(C)on3)n2nc1OCc1ccc(OC2CCOC2)nn1` (stereo not shown) [Embodiment 154] showed a microsomal CLint of 1 µL/min/mg.
With `COc1cc2nnc(-c3cc(C)on3)n2nc1OCc1ccc2c(n1)CCN(C(CO)CO)C2` [Embodiment 185] the microsomal CLint was 9 µL/min/mg.
For `CCNC(=O)c1ccc(COc2nn3c(-c4cc(C)on4)nnc3cc2C(C)(C)C)nc1` [Compound 42 in CN107344936A, reference compound], the microsomal CLint was 143 µL/min/mg.
`COc1cc2nnc(-c3cc(C)on3)n2nc1OCc1ccc2c(n1)CN(C)C2` [Embodiment 160] showed a microsomal CLint of 6 µL/min/mg.
`COc1cc2nnc(-c3cc(C)on3)n2nc1OCc1ccc2c(n1)CCN(C1CCOCC1)C2` [Embodiment 186] showed a microsomal CLint of 22 µL/min/mg.
For `COc1cc2nnc(-c3cc(C)on3)n2nc1OCc1ccc(OC2CCOCC2)nn1` [Embodiment 152], the microsomal CLint was 23 µL/min/mg.
For `COc1cc2nnc(-c3cc(C)on3)n2nc1OCc1ccc2c(n1)CCN(Cc1cc(C)on1)C2` [Embodiment 187], the microsomal CLint was 15 µL/min/mg.
In the case of `COc1cc2nnc(-c3cc(C)on3)n2nc1OCc1ccc(OC2COC2)nn1` [Embodiment 153], the microsomal CLint is reported as 5 µL/min/mg.
Work on `COc1cc2nnc(-c3cc(C)on3)n2nc1OCc1ccccn1` [Embodiment 33] yielded a microsomal CLint of 0.3 µL/min/mg.
With `COCc1ccc(COc2nn3c(-c4cc(C)on4)nnc3cc2OC)nn1` [Embodiment 151] the microsomal CLint was 1 µL/min/mg.
For `COCc1cn2nc(COc3nn4c(-c5cc(C)on5)nnc4cc3OC)ccc2n1` [Embodiment 213], the microsomal CLint was 10 µL/min/mg.
`COc1cc2nnc(-c3cc(C)on3)n2nc1OCc1ccc2c(n1)CCN(C1CCOC1)C2` (stereo not shown) [Embodiment 183] showed a microsomal CLint of 5 µL/min/mg.
`Cc1cc(-c2nnc3cc(C(C)(C)C)c(OCc4ccccn4)nn23)no1` [drawing 926, reference compound] showed a microsomal CLint of 33.6 µL/min/mg.
Compound `COc1cc2nnc(-c3cc(C)on3)n2nc1OCc1ccc2c(n1)CN(C1CCOCC1)C2` [Embodiment 253] has a microsomal CLint of 10 µL/min/mg.
`COCCCOc1ccc(COc2nn3c(-c4noc(C)n4)nnc3cc2OC)nn1` [Embodiment 129] gave a microsomal CLint of 14 µL/min/mg.
Compound `Cc1cc(-c2nnc3c4ccccc4c(OCc4ccccn4)nn23)no1` [α51A-II, reference compound] has a microsomal CLint of 28.2 µL/min/mg.
Work on `COc1cc2nnc(-c3cc(C)on3)n2nc1OCc1ccc(C2(F)CN(C3COC3)C2)cn1` [Embodiment 128] yielded a microsomal CLint of 6 µL/min/mg.
`COc1cc2nnc(-c3cc(C)on3)n2nc1OCc1ccc2nc(C#N)cn2n1` [Embodiment 211] showed a microsomal CLint of 5 µL/min/mg.

Same assay, conditions: rat liver microsomes 0.5 mg protein/mL, NADPH, 37° C., 0-45 min
`COCCOCc1ccc(COc2nn3c(-c4cc(C)on4)nnc3cc2OC)nn1` [Embodiment 166] gave an RLM of 0 µL/min/mg.
`COc1cc2nnc(-c3cc(C)on3)n2nc1OCc1ccc2c(n1)CCN(C1COC1)C2` [Embodiment 84] showed an RLM of 0 µL/min/mg.

System: not listed separately
Experiment: Pharmacokinetic experiment on rats: maximum plasma drug concentration (Cmax)
Type: in vivo
Settings: rat, male SD rats, po, 10 mg/kg, 5% CMC-Na aqueous solution
Experimental: In the pharmacokinetic experiment on rats, the maximum plasma drug concentration (Cmax) was used to evaluate the absorption of the compounds in rats. All rats fasted overnight before administration; the test compounds were dissolved and administered orally (po) to male SD rats, with 3 rats in each group. After administration of the test compounds, blood was collected by jugular vein puncture at […] with about 0.25 mL per sample. The plasma drug concentration was determined by LC-MS/MS method, and the pharmacokinetic parameters were calculated by Phoenix WinNonlin7.0. The dosage was 10 mg/kg, and the vehicle was 5% CMC-Na aqueous solution.
`Cc1cc(-c2nnc3cc(C(C)(C)C)c(OCc4ccccn4)nn23)no1` [drawing 930] showed a Cmax of 216 ng/mL.
Compound `COc1cc2nnc(-c3cc(C)on3)n2nc1OCc1ccccn1` [Embodiment 33] has a Cmax of 1780 ng/mL.
With `Cc1cc(-c2nnc3c4ccccc4c(OCc4ccccn4)nn23)no1` [α51A-II, reference compound] the Cmax was 25.7 ng/mL.

System: α5-GABAA receptor
Experiment: not given
Settings: animal models; cited from earlier work
For `Cc1cc(-c2nncc3c(C(C)(C)C)c(OCc4ncnn4C)nn23)no1` [MRK-016], the “therapeutic effects on cognition related diseases” value is listed as “good therapeutic effects”.
For `Cc1cc(-c2nnc3c4ccccc4c(OCc4cn(C)nn4)nn23)no1` [α5IA], the “therapeutic effects on cognition related diseases” value is listed as “good therapeutic effects”.

System: α5-GABAA receptor
Experiment: not given
Set-up: suppression of the current induced by GABA: dose or concentration left out as unconfirmed
Settings: GABA concentration increased further; cited from earlier work
For `CCOC(=O)c1ncn2c1[C@@H]1CCCN1C(=O)c1cc(OC)ccc1-2` [L-655,708], the “inhibitory effect on the current induced by GABA” value is given as “no inhibitory effect”.

Same assay, conditions: highest concentration of L-655,708; cited from earlier work
For `CCOC(=O)c1ncn2c1[C@@H]1CCCN1C(=O)c1cc(OC)ccc1-2` [L-655,708], the “suppression of the current induced by GABA” value is listed as 15%.

Same assay, conditions: low concentrations of GABA (5, 50 and 500 nM); cited from earlier work
For `CCOC(=O)c1ncn2c1[C@@H]1CCCN1C(=O)c1cc(OC)ccc1-2` [L-655,708], the “inhibition of the current induced by GABA” value is given as “dose-dependently inhibited”.
